Results from PubChem BioAssay AID1919010 (Molecular Pharmacology Branch, DTP, NCI, 2023).
Several values for one entry are separate records, joined by “and”; a condition that tells them apart may be missing. Identical values can stand only once.

Tested on: Hs578T complex spheroid growth, percent test/control
Experiment: Anticancer human tumor Hs578T cell line growth inhibition [AhR];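 note: luminescent viability signal as a proxy for spheroid growth; spheroids exposed to agents for one week after three days of growth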
Conditions: for viability, T/C: stronger effect = lower value
Outline: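 Complex tumor spheroids co-cultured with HUVEC and human MSC stroma; AhR antagonists tested in combination with standard-of-care and investigational agents. Top concentration at or near clinical Cmax (else 10 microM), half-log dilutions; growth expressed as percent test/control.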

[1] = curve of first compound, second compound 0.1 µM
[2] = curve of first compound, second compound 0.316 µM
[3] = curve of first compound, second compound 1 µM
[4] = curve of first compound, second compound 3.16 µM
[5] = curve of first compound, second compound 10 µM
[6] = second compound 0.1 µM, first compound 0.00949 µM
[7] = second compound 0.1 µM, first compound 0.03 µM
[8] = second compound 0.1 µM, first compound 0.0949 µM
[9] = second compound 0.1 µM, first compound 0.3 µM
[10] = second compound 0.316 µM, first compound 0.00949 µM
[11] = second compound 0.316 µM, first compound 0.03 µM
[12] = second compound 0.316 µM, first compound 0.0949 µM
[13] = second compound 0.316 µM, first compound 0.3 µM
[14] = second compound 1 µM, first compound 0.00949 µM
[15] = second compound 1 µM, first compound 0.03 µM
[16] = second compound 1 µM, first compound 0.0949 µM
[17] = second compound 1 µM, first compound 0.3 µM
[18] = second compound 3.16 µM, first compound 0.00949 µM
[19] = second compound 3.16 µM, first compound 0.03 µM
[20] = second compound 3.16 µM, first compound 0.0949 µM
[21] = second compound 3.16 µM, first compound 0.3 µM
[22] = second compound 10 µM, first compound 0.00949 µM
[23] = second compound 10 µM, first compound 0.03 µM
[24] = second compound 10 µM, first compound 0.0949 µM
[25] = second compound 10 µM, first compound 0.3 µM

Compound | IC50 [1] [nM] | IC50 [2] [nM] | IC50 [3] [nM] | IC50 [4] [nM] | IC50 [5] [nM] | viability, T/C [6] [%] | viability, T/C [7] [%] | viability, T/C [8] [%] | viability, T/C [9] [%] | viability, T/C [10] [%] | viability, T/C [11] [%] | viability, T/C [12] [%] | viability, T/C [13] [%] | viability, T/C [14] [%] | viability, T/C [15] [%] | viability, T/C [16] [%] | viability, T/C [17] [%] | viability, T/C [18] [%] | viability, T/C [19] [%] | viability, T/C [20] [%] | other results
COc1ccc([C@@H](O)c2cc(-c3ncnc4cc(N5CCOCC5)ccc34)c(F)cc2Cl)nn1 | – | – | – | – | – | – | – | – | – | – | – | – | – | – | – | – | – | – | – | – | viability, T/C (compound 0.0316 µM): 98.8% and 109% and 95.3%; viability, T/C (compound 0.1 µM): 106% and 104% and 89.5%; viability, T/C (compound 0.316 µM): 90.8% and 87.6% and 99.6%; viability, T/C (compound 1 µM): 90.1% and 71.2% and 78.9%; viability, T/C (compound 3.16 µM): 57.8% and 44.8% and 53.4%; viability, T/C (compound 10 µM): 35.3% and 31.1% and 33.9%; IC50 (curve of compound): 4830 nM and 2640 nM and 3670 nM
CCc1c2c(nc3ccc(O)cc13)-c1cc3c(c(=O)n1C2)COC(=O)[C@]3(O)CC + Cc1cncc(-c2nc(NCCc3c[nH]c4ccccc34)c3ncn(C(C)C)c3n2)c1 | 136 | 197 | 115 | < 0.949 | < 0.949 | 74.4 | 64.6 | 53.9 | 43.1 | 80.2 | 70.4 | 61.2 | 43.7 | 68.2 | 59.7 | 52.1 | 41.8 | 38.7 | 29 | 18.2 | viability, T/C (second compound 0.1 µM, first compound 0.000949 µM): 74.8%; viability, T/C (second compound 0.1 µM, first compound 0.003 µM): 78.7%; viability, T/C (second compound 0.316 µM, first compound 0.000949 µM): 83.5%; viability, T/C (second compound 0.316 µM, first compound 0.003 µM): 78.6%; viability, T/C (second compound 1 µM, first compound 0.000949 µM): 77.7%; viability, T/C (second compound 1 µM, first compound 0.003 µM): 67.1%; viability, T/C (second compound 3.16 µM, first compound 0.000949 µM): 38.9%; viability, T/C (second compound 3.16 µM, first compound 0.003 µM): 42.9%; viability, T/C [21]: 13.8%; viability, T/C (second compound 10 µM, first compound 0.000949 µM): 4.74%; viability, T/C (second compound 10 µM, first compound 0.003 µM): 3.51%; viability, T/C [22]: 4.95%; viability, T/C [23]: 2.72%; viability, T/C [24]: 1.85%; viability, T/C [25]: 1%
O=C(C=Cn1cnc(-c2cc(C(F)(F)F)cc(C(F)(F)F)c2)n1)NNc1cnccn1 + CC(CO)NC(=O)c1cc(-c2ccc(Cl)cc2)nn(-c2cnn(C)c2)c1=O | 305 | 314 | 352 | 333 | 300 | 102 | 108 | 89.4 | 51.8 | 109 | 103 | 87.7 | 53.3 | 107 | 102 | 94.8 | 55.1 | 108 | 100 | 91.7 | viability, T/C (second compound 0.1 µM, first compound 0.949 µM): 19.2%; viability, T/C (second compound 0.1 µM, first compound 3 µM): 17.2%; viability, T/C (second compound 0.316 µM, first compound 0.949 µM): 19.6%; viability, T/C (second compound 0.316 µM, first compound 3 µM): 18.4%; viability, T/C (second compound 1 µM, first compound 0.949 µM): 20.8%; viability, T/C (second compound 1 µM, first compound 3 µM): 18.6%; viability, T/C [21]: 51.5%; viability, T/C (second compound 3.16 µM, first compound 0.949 µM): 28.2%; viability, T/C (second compound 3.16 µM, first compound 3 µM): 21.9%; viability, T/C [22]: 97%; viability, T/C [23]: 102%; viability, T/C [24]: 100%; viability, T/C [25]: 50%; viability, T/C (second compound 10 µM, first compound 0.949 µM): 22.6%; viability, T/C (second compound 10 µM, first compound 3 µM): 24.4%
